Assay results as given in patent US7968744B2, “Physiological coolants based on lactoyl esters of menthyl lactate” (Renessenz, LLC, priority 2007, dated 2011).

Test system: mouth (panel of three flavorists)
Assay: Sensory evaluation of cooling strength by a panel of three flavorists
Type: in vivo
Conditions: for Cooling strength score of reference standards: reference standards on the scale of 1 to 10, 10 being the strongest
Protocol: The sensory properties of crystalline MLL and liquid products that contain MLL (from Examples 1-5, above) are evaluated by a panel of three flavorists. The standard method involves holding an aqueous solution containing 20 ppm of coolant in the mouth for 30 seconds, then spitting it out and observing and quantifying the cooling effect when compared with a set of reference standards. Based on their cooling strength, the samples are scored on a scale of 1 to 10, with 10 being the strongest. Samples used as reference standards are to monomenthyl glutarate (3.5 on this scale), l-menthyl lactate (4.5) and N-ethyl-3-p-menthane carboxamide, i.e., WS-3 (10). Several coolant “cocktails,” i.e., liquid coolant-mixtures, are prepared, and their sensory properties are evaluated as in Example 6. The compositions and results appear in Table 2.

Row | SMILES | Score (cooling strength) (aqueous solution containing 20 ppm of coolant held in the mouth for 30 seconds, scale of 1 to 10, 10 being the strongest, Table 1) | Cooling strength compared with reference coolants (in words) (sensory evaluation) | Cooling strength score of reference standards
1 | CC(C)[C@@H]1CC[C@@H](C)C[C@H]1OC(=O)[C@H](C)OC(=O)[C@H](C)O [Example 6, l-menthyl L-lactoyl-L-lactate] | 4.0 | intermediate between that of l-menthyl lactate and monomenthyl glutarate | 
2 | CCNC(=O)C1CC(C)CCC1C(C)C (centres unmarked) [WS-3, N-ethyl-3-p-menthane carboxamide] |  |  | 10
3 | CC(C)[C@@H]1CC[C@@H](C)C[C@H]1OC(=O)[C@H](C)O [l-menthyl lactate] |  |  | 4.5
4 | CC(C)[C@@H]1CC[C@@H](C)C[C@H]1OC(=O)CCCC(=O)O [monomenthyl glutarate] |  |  | 3.5
